Reference: paper PMC9696974 (Pharmaceutics, 2022)

Columns and labels:
[1] = system: poly dAdT-poly dAdT; assay: Thermal denaturation of poly dAdT-poly dAdT (∆Tm); assay type: binding; conditions: I = 50 mM
Protocol: (§1) Experiments were conducted in an aqueous buffer solution (pH = 7.0 or pH= 5.0, I = 0.05 M, sodium cacodylate buffer). For the UV-Vis spectra were used Varian Cary 100 Bio spectrometer, for fluorescence spectra we used the Varian Cary Eclipse fluorimeter and for CD spectra we used the JASCO J815 spectropolarimeter, all conducted at 25.0 °C using appropriate quartz cuvettes (path length: 1 cm).
(§2) Polynucleotides were purchased as noted: poly dAdT-poly dAdT, poly dGdC-poly dGdC, poly A-poly U (ds-RNA), (Sigma-Aldrich, Schnelldorf, Germany), calf thymus (ct)-DNA (Sigma-Aldrich, Schnelldorf, Germany) and dissolved in sodium cacodylate buffer, I = 0.05 M, pH = 7.0. The ct-DNA was sonicated and filtered through a 0.45 µm filter to obtain mostly short (ca. 100 base pairs) rod-like B-helical DNA fragments. The concentration of DNA or RNA was determined spectroscopically as the c(nucleobase) using producer-provided molar extinction coefficients.
(§3) Thermal denaturation of ds-DNA, ds-RNA and their complexes with studied compounds was performed by monitoring the absorption change at 260 nm as a function of temperature. Tm values are the midpoints of the transition curves determined from the maximum of the first derivative and checked graphically by the tangent method. The ∆Tm values were calculated by subtracting the Tm of the free nucleic acid from the Tm of the complex. Every ∆Tm value here reported was the average of at least two measurements. The error in ∆Tm is ± 0.5 °C.

[2] = system: pApU (poly A-poly U, ds-RNA); assay: Thermal denaturation of pApU ds-RNA (∆Tm); assay type: binding; conditions: I = 50 mM
Protocol: as §1, §2, §3

[3] = system: ct-DNA; assay: Fluorimetric titration with ct-DNA, Scatchard equation; assay type: binding, calf; design: key: The changes were too small to allow an accurate calculation of the binding constant; conditions: I = 0.05 M
Protocol: as §1, §2
Fortunately, strong emission from the compounds studied allowed fluorimetric titrations to be performed at much lower concentrations of the dyes (c = 5 × 10^−8 M), thus preventing precipitation of non-methylated 1 or 2, and allowing for the collection of numerous data points at excess of DNA/RNA binding sites over c(dye). […] Intriguingly, mixed sequence ct-DNA caused emission quenching of 1M at an excess of dye over ct-DNA (r > 0.1), and such quenching could be attributed to aggregation of 1M along DNA, while at an excess of ct-DNA over dye (r << 0.1), emission increased. The emission of 2M was indiscriminately quenched by all ds-DNA/RNA (Figure 2d).
Processing of fluorimetric titrations by means of the Scatchard equation [56, 57] yielded binding constants (Table 2). […] Affinities of 1 and 2 toward BSA were the same at both pH values, supporting the conclusion that neutral forms of 1 and 2 were bound.

[4] = target: GC-DNA (poly dGdC-poly dGdC); assay: Fluorimetric titration with GC-DNA, Scatchard equation; assay type: binding; conditions: pH 7, sodium cacodylate buffer, I = 0.05 M
Protocol: as §1, §2
(§4) Fortunately, strong emission from the compounds studied allowed fluorimetric titrations to be performed at much lower concentrations of the dyes (c = 5 × 10^−8 M), thus preventing precipitation of non-methylated 1 or 2, and allowing for the collection of numerous data points at excess of DNA/RNA binding sites over c(dye). […]

[5] = target: AU-RNA (poly A-poly U); assay: Fluorimetric titration with AU-RNA, Scatchard equation; assay type: binding; conditions: pH 7, sodium cacodylate buffer, I = 0.05 M
Protocol: as §1, §2, §4

[6] = target: AT-DNA (poly dAdT-poly dAdT); assay: Fluorimetric titration with AT-DNA, Scatchard equation; assay type: binding; conditions: pH 7, sodium cacodylate buffer, I = 0.05 M
Protocol: as §1, §2, §4

[7] = system: WI-38 cells; assay: MTT cell viability assay, WI-38, with or without UV light; assay type: cell-based, human; conditions: WI-38, 10 μM and 1 μM, without UV
Protocol: Cells. Commercially available from American Type Culture Collection (ATCC), human epithelial lung adenocarcinoma A549 (ATCC® CCL-185™) and human normal lung fibroblast WI-38 (ATCC® CCL-75™) were grown according to supplier’s conditions, namely in Dulbecco Modified Eagle’s Medium (DMEM, Sigma Aldrich, St. Louis, MO, USA) supplemented with 10% of fetal bovine serum (FBS, Sigma Aldrich, USA). Cells were incubated in the cell incubator (Thermo Fischer Scientific, Waltham, MA, USA) at 37 °C and 5% CO2 in a humidified atmosphere.
Cell viability assay. In order to obtain a 10 mM stock solution chemical compounds (2M, 1, and 1M) were sterilely diluted in an appropriate volume of dimethyl sulfoxide solution (DMSO, Gram-Mol, Zagreb, Croatia). Solutions were kept in the dark and stored at 4 °C. The cytotoxic effects of each compound were assayed on A549 and WI-38 cells. […] Briefly, cells were seeded in 96-well tissue culture plates and 24 h later treated with 2M, 1, or 1M in the concentration range of 10–0.1 μM. Cells treated with the same dilutions of DMSO represented the control, while cells treated only with DMEM (10% FBS) represented the negative control. […] The resulting MTT-formazan products were dissolved using DMSO, and their absorbance at 600 nm was measured using a microplate reader. […]

[8] = system: A549 cells; assay: Confocal time-lapse imaging under irradiation; assay type: cell-based, human; conditions: A549, 1 µM (Figure 9), irradiated at 350 nm
Protocol: Cells were left in the cell incubator for 90 min to allow the compound to enter the cells. After incubation, the medium was replaced with 500 μL of fresh medium. […]

[9] = system: poly dAdT-poly dAdT (AT-DNA, p(dAdT)2) (DNA, polymer) AT; assay: UV thermal denaturation at 260 nm; conditions: Na+ (sodium cacodylate, I = 50 mM); pH 7.0; r = [compound]/[polynucleotide] = 0.2; error ± 0.5 °C; per base
[10] = system: poly dAdT-poly dAdT (AT-DNA, p(dAdT)2) (DNA, polymer) AT; assay: fluorimetric titration, Scatchard; conditions: Na+ (sodium cacodylate, I = 0.05 M); pH 7.0, 25 °C; Scatchard n fixed at 0.2 or 0.3; per base
[11] = system: poly dGdC-poly dGdC (GC-DNA, p(dGdC)2) (DNA, polymer) GC; assay: fluorimetric titration, Scatchard; conditions: Na+ (sodium cacodylate, I = 0.05 M); pH 7.0, 25 °C; Scatchard n fixed at 0.2 or 0.3; per base
[12] = system: poly A-poly U (AU-RNA, pApU) (RNA, polymer) A/U; assay: fluorimetric titration, Scatchard; conditions: Na+ (sodium cacodylate, I = 0.05 M); pH 7.0, 25 °C; Scatchard n fixed at 0.2 or 0.3; per base
[13] = system: ct-DNA; assay: Thermal denaturation of ct-DNA (∆Tm); assay type: binding, calf; conditions: I = 50 mM
Protocol: as §1, §2, §3

[14] = r = 0.2, pH 7.0, sodium cacodylate buffer
[15] = r = 0.3, pH 7.0, sodium cacodylate buffer

Structure (SMILES) | ∆Tm Poly dAdT-Poly dAdT [1, 14] | ∆Tm Poly dAdT-Poly dAdT [1, 15] | ∆Tm pApU [2, 14] | ∆Tm pApU [2, 15] | Binding constant logKs ct-DNA ([3]; pH 7, sodium cacodylate buffer) | Binding constant logKs GC-DNA [4] | Binding constant logKs AU-RNA [5] | Binding constant logKs AT-DNA [6] | Cytotoxic effect relative to A549 [7] | Cell morphology under continuous irradiation [8] | ∆Tm [9] | logKs [10] | logKs [11] | logKs [12] | ∆Tm ct-DNA [13, 14] | ∆Tm ct-DNA [13, 15] | ∆Tm ct-DNA ([13]; r = 0.1, pH 5.0, sodium cacodylate buffer) | ∆Tm ct-DNA ([13]; r = 0.3, pH 5.0, sodium cacodylate buffer) | Binding constant logKs ct-DNA ([3]; pH 5, sodium cacodylate buffer)
C[n+]1ccc(-c2cc3ccc4cccc5ccc(c2)c3c45)cc1 [1M, 2-para-N-methylpyridinium pyrene] | 8 °C | 9 °C | 3 °C | 3 °C | 5.5 | 7.0 | 5.8 | 5.9 | somewhat more resilient | swelling and even blebbing morphology | 8 °C | 5.9 | 7.0 | 5.8 | – | – | – | – | –
C[n+]1ccc(-c2cc3ccc4cc(-c5cc[n+](C)cc5)cc5ccc(c2)c3c45)cc1 [2M] | 31 °C | 33 °C | 4 °C | – | 8.8 | 9.1 | 8.5 | 7.1 | somewhat more resilient | swelling and even blebbing morphology | 31 °C | 7.1 | 9.1 | 8.5 | ^d >16 °C | ^d >16 °C | – | – | –
c1cc2ccc3cc(-c4ccncc4)cc4ccc(c1)c2c34 [compound 1] | – | – | – | – | b | – | – | – | – | – | – | – | – | – | – | – | 0 °C | 2 °C | 5.3
